What was measured:
[1] = molecular target: T1, 17β-HSD2 (Homo sapiens, UniProt P37059); test: Inhibition of 17β-HSD2 (estradiol to estrone, radio-HPLC); format: biochemical; details: human placenta microsome fraction, 500 nM estradiol, NAD+ 1500 μM
T1 construct: from tissue; host or cells: human placenta, microsome fraction
T1 sequence (P37059 1-387): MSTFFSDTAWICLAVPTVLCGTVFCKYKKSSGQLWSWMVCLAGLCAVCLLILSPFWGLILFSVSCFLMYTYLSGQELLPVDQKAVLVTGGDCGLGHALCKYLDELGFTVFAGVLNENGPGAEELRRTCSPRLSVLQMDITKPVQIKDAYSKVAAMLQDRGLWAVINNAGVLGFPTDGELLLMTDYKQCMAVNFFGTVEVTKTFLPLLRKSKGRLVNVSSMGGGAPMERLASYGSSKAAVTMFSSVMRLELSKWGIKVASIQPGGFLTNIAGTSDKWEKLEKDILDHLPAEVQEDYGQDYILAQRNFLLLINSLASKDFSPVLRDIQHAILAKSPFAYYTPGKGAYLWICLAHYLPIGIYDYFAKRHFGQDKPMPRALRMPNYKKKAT
Experimental: Determination of the inhibitory activity of the potential inhibitors: Inhibition of 17β-HSD1 and 17β-HSD2: In both cases, human placenta served as the enzyme source (Lin, S.-X. et al., J. Biol. Chem., 267: 16182-16187 (1992)).
In the 17β-HSD2 test, the natural cosubstrate NAD^+ is employed at a final concentration of 1500 μM. The microsome fraction is diluted in test buffer, so that a control conversion of 20 to 30% results (about 1:350). As the substrate, estradiol in a final concentration of 500 nM is used, of which 3 nM is tritiated. 2,4,6,7-[^3H]estradiol is also purchased from Perkin-Elmer, Boston. The inhibitor is added as a solution in DMSO (control: pure DMSO without inhibitor; the final concentration of DMSO in the assay is […]). After the addition of the substrate, incubation is performed at 37° C. for 20 minutes. The reaction is quenched by the addition of HgCl2 (final concentration of HgCl2: 0.166 mM).
(§1) After the reaction, the substrate and product are extracted by partitioning with ether, separated by chromatography (HPLC) and quantified by means of radiodetection.

[2] = test system: CaCo-2 cells; test: CaCo2 transport assay; format: in vitro ADME; details: 50 μM in donor compartment
Experimental: (§2) Performance of selected compounds in a CaCo2 assay: Caco-2 cell culture and transport experiments were performed according to Yee (Yee, S., Pharm. Res., 14(6): 763-766 (1997)), but slight modifications were introduced. The cultivation times were reduced from 21 to 10 days by increasing the sowing density from 6.3·10^4 to 1.65·10^5 cells per well. […] The initial concentration of the compounds in the donor compartment was 50 μM (in buffer with 1% ethanol or DMSO). Samples were taken from the acceptor side after 60, 120 and 180 min and from the donor side after 0 and 180 min. For glycoprotein P (P-gp) studies, bidirectional experiments were performed. The absorptive and secretory permeabilities (Papp (a-b) and Papp (b-a)) were determined. Thus, erythromycin was used as a substrate, and verapamil was used as an inhibitor of P-gp. Each experiment was performed in triplicate. The integrity of the monolayer was determined by means of TEER (transepithelial electric resistance) and the permeability for each assay was determined using Lucifer Yellow. All samples of the CaCo-2 transport experiments were analyzed by means of LC/MS/MS after dilution with buffer (1:1 with 2% acetic acid). The apparent permeability coefficient (Papp) was calculated by means of the formula given below, where dQ/dt represents the recovery rate of the mass in the acceptor compartment, A represents the surface area of the transwell membrane, and c0 represents the initial concentration in the donor compartment.

[3] = CaCo2 transport assay; format: in vitro ADME; details: human, Caco-2; 50 μM in donor compartment; read-out: Papp [cm/sec ± rel. SD]
Experimental: as §2

[4] = molecular target: T2, 17β-HSD1 (Homo sapiens, UniProt P14061); test: Inhibition of 17β-HSD1 (estrone to estradiol, radio-HPLC); format: biochemical; details: for IC50: human placenta enzyme, 500 nM estrone, NADH 500 μM; for Selectivity IC50 (17β-HSD2)/IC50 (17β-HSD1): ratio of IC50 values
T2 construct: In both cases, human placenta served as the enzyme source; from tissue; host or cells: human placenta
T2 sequence (P14061 1-328): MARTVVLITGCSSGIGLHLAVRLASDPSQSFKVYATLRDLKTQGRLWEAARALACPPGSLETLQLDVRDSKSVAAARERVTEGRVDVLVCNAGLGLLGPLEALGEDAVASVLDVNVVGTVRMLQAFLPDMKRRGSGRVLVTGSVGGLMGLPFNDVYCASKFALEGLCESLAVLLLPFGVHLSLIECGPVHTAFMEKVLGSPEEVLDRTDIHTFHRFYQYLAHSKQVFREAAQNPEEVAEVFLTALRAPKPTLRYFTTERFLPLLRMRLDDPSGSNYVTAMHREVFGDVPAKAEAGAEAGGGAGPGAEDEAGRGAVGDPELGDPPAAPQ
Experimental: In the 17β-HSD1 test, NADH is employed as a cosubstrate at a final concentration of 500 μM in order to avoid the product inhibition occurring with NADPH. The enzyme preparation is diluted with test buffer to such an extent that the control conversion is 10 to maximally 20% (about 1:650). As the substrate, estrone in a final concentration of 500 nM is used, of which 3 nM is tritiated. 2,4,6,7-[^3H]estrone is purchased from Perkin-Elmer, Boston. The inhibitor is added as a solution in DMSO (control: pure DMSO without inhibitor; the final concentration of DMSO in the assay is 1% in all cases).
as §1

[5] = molecular target: T3, estrogen receptor α (Homo sapiens, UniProt P03372); test: Affinity for the estrogen receptor α (RBA); format: binding; details: data not stated
T3 sequence (P03372 1-595): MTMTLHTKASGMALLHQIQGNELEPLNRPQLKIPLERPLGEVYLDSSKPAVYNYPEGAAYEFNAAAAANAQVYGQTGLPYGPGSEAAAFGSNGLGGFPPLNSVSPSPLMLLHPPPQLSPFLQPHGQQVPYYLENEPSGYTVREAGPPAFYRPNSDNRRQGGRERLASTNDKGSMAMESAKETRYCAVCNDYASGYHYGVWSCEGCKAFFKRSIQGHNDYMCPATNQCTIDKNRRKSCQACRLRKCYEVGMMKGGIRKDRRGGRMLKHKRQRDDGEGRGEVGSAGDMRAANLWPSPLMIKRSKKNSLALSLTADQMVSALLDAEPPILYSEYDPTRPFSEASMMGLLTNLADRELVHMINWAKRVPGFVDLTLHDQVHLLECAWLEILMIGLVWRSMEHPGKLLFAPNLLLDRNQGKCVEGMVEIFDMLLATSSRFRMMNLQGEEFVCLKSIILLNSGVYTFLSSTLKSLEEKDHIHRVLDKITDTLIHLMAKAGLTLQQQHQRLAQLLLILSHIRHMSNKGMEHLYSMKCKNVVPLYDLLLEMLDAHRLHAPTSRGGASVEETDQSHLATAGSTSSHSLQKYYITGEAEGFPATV
Experimental: Slight changes were made: The respective inhibitor was incubated at RT for 2 h with shaking.
The receptor affinities are established as RBA (relative binding affinity) values. The RBA value of the reference estradiol is set to 100%.

[6] = In vivo pharmacokinetics (rat), peroral cassette dosing; parameters: species or system Wistar rats; details: 10 mg/kg
Experimental: In vivo pharmacokinetics (rat): The compounds 29, 45, 47 and 59 and a reference compound were administered to adult male Wistar rats (n=4) perorally in a cassette dosing method (vehicle: Labrasol/water 1/1). The plasma profiles were established by means of LC-MS/MS.
• Cmax obs highest measured concentration • Cz last analytically quantifiable concentration • tmax obs time to reach the highest measured concentration • tz time to withdrawal of the last sample with analytically quantifiable concentration • t1/2z half life (determined from the slope of the declining portion of the concentration vs. time curve • AUC0-tz area below the concentration vs. time curve up to time tZ • AUC0-∞ area below the concentration vs. time curve, extrapolated to ∞

[7] = molecular target: T4, CYP2C19 (Homo sapiens, UniProt P33261); test: Inhibition of hepatic CYP enzymes: CYP2C19; format: biochemical
T4 construct: purchased Becton Dickinson GmbH (Heidelberg)
T4 sequence (P33261 whole entry): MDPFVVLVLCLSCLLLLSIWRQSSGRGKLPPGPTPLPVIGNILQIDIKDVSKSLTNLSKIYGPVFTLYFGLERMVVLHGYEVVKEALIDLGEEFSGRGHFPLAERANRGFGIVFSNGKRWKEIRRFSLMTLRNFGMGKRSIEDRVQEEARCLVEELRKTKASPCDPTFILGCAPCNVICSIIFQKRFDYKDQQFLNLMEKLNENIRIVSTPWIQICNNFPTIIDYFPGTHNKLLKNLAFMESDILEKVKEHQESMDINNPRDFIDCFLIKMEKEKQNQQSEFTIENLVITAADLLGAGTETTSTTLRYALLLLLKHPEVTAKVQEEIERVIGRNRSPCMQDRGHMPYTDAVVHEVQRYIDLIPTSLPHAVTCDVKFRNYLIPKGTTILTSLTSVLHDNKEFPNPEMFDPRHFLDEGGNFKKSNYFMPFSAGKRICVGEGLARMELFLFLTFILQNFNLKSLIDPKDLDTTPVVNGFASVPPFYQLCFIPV
Description: (§3) Drug interactions (inhibition of hepatic CYP enzymes): The inhibition of six human hepatic cytochrome P450 enzymes by selected compounds was examined by means of the kit supplied by Becton Dickinson GmbH (Heidelberg).

[8] = molecular target: T5, CYP1A2 (Homo sapiens, UniProt P05177); test: Inhibition of hepatic CYP enzymes: CYP1A2; format: biochemical; details: read-out: CYP1A2 IC50 (mean ± SD)
T5 construct: purchased Becton Dickinson GmbH (Heidelberg)
T5 sequence (P05177 1-516): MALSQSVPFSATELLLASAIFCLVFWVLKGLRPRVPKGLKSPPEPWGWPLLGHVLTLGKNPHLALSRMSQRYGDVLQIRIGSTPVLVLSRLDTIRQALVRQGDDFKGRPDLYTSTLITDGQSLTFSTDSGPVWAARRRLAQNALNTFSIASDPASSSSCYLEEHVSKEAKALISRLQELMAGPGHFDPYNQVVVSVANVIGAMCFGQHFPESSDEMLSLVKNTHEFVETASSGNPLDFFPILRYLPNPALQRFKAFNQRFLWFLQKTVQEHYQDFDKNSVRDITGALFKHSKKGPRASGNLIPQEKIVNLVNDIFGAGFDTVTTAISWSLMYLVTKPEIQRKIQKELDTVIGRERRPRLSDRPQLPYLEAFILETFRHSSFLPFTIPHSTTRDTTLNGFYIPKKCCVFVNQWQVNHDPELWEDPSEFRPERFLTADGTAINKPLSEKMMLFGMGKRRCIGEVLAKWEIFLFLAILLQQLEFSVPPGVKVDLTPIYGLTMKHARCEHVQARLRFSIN
Description: as §3

Row | IC50 [1] | Permeability (class in words) [2] | Papp at 180 min, 50 μM [3] | IC50 [4] | Selectivity IC50 (17β-HSD2)/IC50 (17β-HSD1) [4] | SMILES | also measured
1 | 4000 nM | medium-high | 7.8 ×10⁻⁶ cm/s | 50 nM | 80 | Oc1ccc(-c2cnc(-c3cccc(O)c3)s2)cc1 [Compound 19, 3-[5-(4-Hydroxyphenyl)-1,3-thiazole-2-yl]phenol] | –
2 | 3100 nM | high | 11.7 ×10⁻⁶ cm/s | 180 nM | 17 | Oc1ccc(-c2ncc(-c3cccc(O)c3)s2)cc1 [Compound 20, 3-[2-(4-Hydroxyphenyl)-1,3-thiazole-5-yl]phenol] | –
3 | – | – | – | 320 nM | – | Oc1ccc(-c2csc(-c3cccc(O)c3)n2)cc1 [Compound 23, 3-[4-(4-Hydroxyphenyl)-1,3-thiazole-2-yl]phenol] | affinity for the estrogen receptor (in words) [5]: negligible
4 | 1700 nM | high | – | 130 nM | – | Oc1ccc(-c2cc(-c3cccc(O)c3)cs2)cc1 [Compound 32, 3-[5-(4-Hydroxyphenyl)-3-thienyl]phenol] | IC50 [7]: 4.43 ± 0.17 µM; IC50 [8]: 8.68 ± 0.29 µM
5 | 600 nM | medium | 3.6 ×10⁻⁶ cm/s | 180 nM | 3.3 | Oc1cccc(-c2nsc(-c3cccc(O)c3)n2)c1 [Compound 37] | –

Further lines, the compound ahead of its results:

Row | SMILES | IC50 [1] | Permeability (class in words) [2] | Papp at 180 min, 50 μM [3] | IC50 [4] | Selectivity IC50 (17β-HSD2)/IC50 (17β-HSD1) [4] | also measured
6 | Oc1ccc(-c2cnc(-c3cccc(O)c3)o2)cc1 [Compound 8, 3-[5-(4-Hydroxyphenyl)-1,3-oxazole-2-yl]phenol] | 1020 nM | medium-high | 7.9 ×10⁻⁶ cm/s | 570 nM | 1.8 | –
7 | Oc1ccc(-c2cc(-c3cccc(O)c3)on2)cc1 [Compound 18, 3-[3-(4-Hydroxyphenyl)isoxazole-5-yl]phenol] | 800 nM | medium-high | 7.3 ×10⁻⁶ cm/s | 560 nM | 1.4 | –
8 | Oc1ccc(-c2nc(-c3cccc(O)c3)cs2)cc1 [Compound 24, 3-[2-(4-Hydroxyphenyl)-1,3-thiazole-4-yl]phenol] | – | – | – | – | – | inhibition at 1 µM ([4]; read-out: inhibition of 17β-HSD1 at 1 μM): 49%; affinity for the estrogen receptor (in words) [5]: negligible
9 | Oc1ccc(-c2ccc(-c3cccc(O)c3)s2)cc1 [Compound 29, 3-[5-(4-Hydroxyphenyl)-2-thienyl]phenol] | 1950 nM | high | 22 ×10⁻⁶ cm/s | 60 nM | 33 | tz (time of last sample with quantifiable concentration) [6]: 10.0 h; Cz (last analytically quantifiable concentration) ([6]; plasma): 6.56 ng/mL; AUC(0-t) ([6]; male, Wistar, plasma, po): 99.2 ng·h/mL; AUC(0-inf) ([6]; male, Wistar, plasma, po, extrapolated to ∞): 99.2 ng·h/mL; half-life ([6]; male, Wistar, plasma, po, read-out: t1/2z (half life) (converted)): 90 min; Tmax ([6]; male, Wistar, plasma, po, read-out: tmax obs (time to reach the highest measured concentration)): 8 h; Cmax ([6]; male, Wistar, po, plasma, read-out: Cmax obs (highest measured concentration)): 7.8 ng/mL
10 | Oc1ccc(-c2cccc(-c3ccc(O)cc3)c2)cc1 [Compound 41, [1,1′;3′,1″]Terphenyl-4,4″-diol] | 2200 nM | high | 12.6 ×10⁻⁶ cm/s | 1600 nM | 1.4 | –
11 | Cc1cc(O)cc(-c2ccc(-c3ccc(O)cc3)s2)c1 [Compound 53, 3-[5-(4-Hydroxyphenyl)-2-thienyl]-5-methylphenol] | – | high | 24.2 ×10⁻⁶ cm/s | 450 nM | – | –

Source: patent US20110046147A1, “17BETA-HYDROXYSTEROID DEHYDROGENASE TYPE 1 INHIBITORS FOR THE TREATMENT OF HORMONE-RELATED DISEASES” (UNIVERSITAT DES SAARLANDES, priority 2007, published 2011)
